Experimental data published in patent publication US8440623B2, “Polymer stabilized neuropeptides” (Nektar Therapeutics, priority 1999, dated 2013).

How the values were obtained:
[1] = Enzymatic stability in brain tissue; assay type: in vitro ADME
Text: (§1) The major contribution is that PEGylation improved brain and blood enzymatic stability dramatically. […] After PEGylation, those half-lives increased to hours for endomorphin II.

[2] = Enzymatic stability in blood plasma; assay type: in vitro ADME
Text: as §1

[3] = test system: male ICR mice; assay: Analgesia assay (radiant heat tail flick), mice; assay type: in vivo, mouse; conditions: intravenous, FIG. 3
Procedure: Male ICR mice (20-25 g) or male Sprague-Dawley rats (250-300 g) (Harlan Sprague-Dawley Inc., Indianapolis, Ind.) were used for these experiments. Animals were housed four per cage in an animal care facility maintained at 22±0.5° C. with an alternating 12 hr light-dark cycle. Food and water were available ad libitum. Animals were used only once.
All drugs were dissolved in sterile saline and were prepared so that the proper dose would be delivered in 5 μl (i.c.v.), 100 μl (i.v.), 100 μl (s.c.) and 100 μl (i.m.) of the vehicle. All rodents were recorded for baseline latency before injection of the drug. A morphine control was used with the i.c.v. and i.v. injection procedures to compare the analgesic efficacies of test compounds. […]
The rodents were placed into restraint holders and their tails were properly placed under the radiant heat beam. The beam was turned on and the time until the animal flicked their tail from under the beam was recorded at each time point. […]
The raw data (recorded times) was converted to a percentage of the maximum possible effect (% M.P.E.) which was determined as 15 seconds. % M.P.E. was determined by the following equation: % M.P.E.=(Recorded time−Baseline)/(15−Baseline)×100
These percentages then allow the compound to be plotted according to % M.P.E. vs. Time. The curve can then be analyzed to determine the area under the curve (AUC).

[4] = test system: rat brain; assay: In situ rat brain perfusion (brain uptake); conditions: radiolabeled compound
Procedure: The protocol for the rat brain perfusion experiments was approved by the Institutional Animal Care and Use Committee at the University of Arizona. The in situ perfusion, capillary depletion, brain extract and protein binding studies were carried out as previously reported (Williams et al., J. Neurochem., 66 (3), pp 1289-1299, 1996).
The protocol for the rat brain perfusion experiments was approved by the Institutional Animal Care and Use Committee at the University of Arizona. The in situ perfusion studies were carried out as previously reported (Williams et al., J. Neurochem., 66 (3), pp 1289-1299, 1996).

| Molecule | half-life [1] [min] | half-life ([2]; blood plasma) [min] | half-lives in either brain or blood (in words) [2] | time mark at which 50% M.P.E. is seen [3] [min] | in situ uptake RBr value [4] |
| --- | --- | --- | --- | --- | --- |
| NC(=O)[C@H](Cc1ccccc1)NC(=O)[C@H](Cc1ccccc1)NC(=O)[C@@H]1CCCN1C(=O)[C@@H](N)Cc1ccc(O)cc1 [endomorphin II, H-Tyr-Pro-Phe-Phe-NH2] | 13 | 3.2 | on the order of minutes | – | – |
| C[C@@H](NC(=O)[C@@H](N)Cc1ccc(O)cc1)C(=O)NCC(=O)N[C@@H](Cc1ccccc1)C(=O)NNC(=O)[C@H](Cc1ccccc1)NC(=O)CNC(=O)[C@@H](C)NC(=O)[C@@H](N)Cc1ccc(O)cc1 [native biphalin, (H-Tyr-D-Ala-Gly-Phe-NH—)2] | – | – | – | 90 | 7.26±0.11 |
| H-Tyr-Gly-Gly-Phe-Leu-Arg-Arg-Ile-Arg-Pro-Lys-NH2 (H-YGGFLRRIRPK-NH2) [dynorphin] | – | – | on the order of minutes | – | – |
| Tyr-D-Pen-Gly-Phe-D-Pen [I^125 DPDPE] | – | – | – | – | 3.54±0.30 |
